Consider 22 molecules from patent US20090247559A1 (Exelixis, Inc., priority 2007, published 2009).

Bounds are passed on as bounds.

In assay [1] the target is PIM (PIM-1, PIM-2, and/or PIM-3). Description: PIM-1, PIM-2 and PIM-3 inhibition, biochemical chemiluminescence assays (Kinase Glo, IC50 determination). As to conditions: Table 1 activity class; PIM refers to PIM-1, PIM-2, and/or PIM-3; read-out: PIM IC50 (Activity B).
The next assay addresses CK2 (Homo sapiens, UniProt P68400). Description: CK2 inhibition, biochemical chemiluminescence holoenzyme assay (Kinase Glo, IC50 determination). The following applies: Table 1 activity class; symbol given only if active; read-out: CK2 IC50 (Activity C). The procedure, abridged: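 Holoenzyme CK2 assay; compounds pre-incubated with substrate and enzyme, then reacted 150 min at 24-27° C. Remaining ATP measured as luminescence with Kinase Glo, and IC50 derived from the signal.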
In general terms: In Kinase-Glo more light means more ATP remaining.

Chain of CK2 (P68400 whole entry): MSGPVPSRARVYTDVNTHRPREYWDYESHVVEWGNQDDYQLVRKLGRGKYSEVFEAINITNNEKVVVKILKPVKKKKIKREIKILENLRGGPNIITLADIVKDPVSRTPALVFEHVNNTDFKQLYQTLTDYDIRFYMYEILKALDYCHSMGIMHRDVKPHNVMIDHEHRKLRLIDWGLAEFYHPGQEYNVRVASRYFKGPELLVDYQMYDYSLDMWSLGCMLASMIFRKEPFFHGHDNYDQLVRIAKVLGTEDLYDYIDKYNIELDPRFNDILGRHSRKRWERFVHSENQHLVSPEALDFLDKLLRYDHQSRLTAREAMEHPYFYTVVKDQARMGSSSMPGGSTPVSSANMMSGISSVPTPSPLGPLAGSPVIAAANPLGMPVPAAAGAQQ
Chain of CK2 (P67870 whole entry partner): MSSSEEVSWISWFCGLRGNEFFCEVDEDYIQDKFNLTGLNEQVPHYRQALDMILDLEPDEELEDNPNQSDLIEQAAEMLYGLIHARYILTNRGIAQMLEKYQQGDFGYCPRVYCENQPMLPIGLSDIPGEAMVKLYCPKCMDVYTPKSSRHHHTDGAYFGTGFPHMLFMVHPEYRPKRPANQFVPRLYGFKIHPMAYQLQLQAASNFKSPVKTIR

Broadly, the IC50 is the concentration that gives 50% inhibition. Take `CCN1C[C@@H]2C[C@H]1CN2Cc1nc2c(oc3ccc(Br)cc32)c(=O)[nH]1` [Compound 295, 8-bromo-2-{[(1S,4S)-5-ethyl-2,5-diazabicyclo[2.2.1]hept-2-yl]methyl}[1]benzofuro[3,2-d]pyrimidin-4(3H)-one]: the IC50 (in assay [1]; at CK2) was under 10 µM each time.
For the molecule `CC(C)(C)OC(=O)N1CCOC(c2nc3c(oc4ccc(Br)cc43)c(=O)[nH]2)C1` (centres unmarked) [Compound 297, 1,1-Dimethylethyl 2-(8-bromo-4-oxo-3,4-dihydro[1]benzofuro[3,2-d]pyrimidin-2-yl)morpholine-4-carboxylate], the IC50 (in assay [1]; at CK2) was under 10 µM in each case.
Regarding `O=c1[nH]c(-c2cc(OC3CCNCC3)no2)nc2c1oc1ccc(Br)cc12` [Compound 299, 8-Bromo-2-[3-(piperidin-4-yloxy)isoxazol-5-yl][1]benzofuro[3,2-d]pyrimidin-4(3H)-one], the concentration for half-maximal inhibition (IC50) (in assay [1]; at CK2) was under 10 µM in each case.
As to `O=c1[nH]c(-c2ccc3c(c2)CCNC3)nc2c1oc1ccc(Br)cc12` [Compound 300, 8-Bromo-2-(1,2,3,4-tetrahydroisoquinolin-6-yl)[1]benzofuro[3,2-d]pyrimidin-4(3H)-one], the IC50 (in assay [1]; at CK2) was under 10 µM each time.
In the case of `O=c1[nH]c(-c2ccc(N3CCNCC3)cc2)nc2c1oc1ccc(Br)cc12` [Compound 303, 8-Bromo-2-(4-piperazin-1-ylphenyl)[1]benzofuro[3,2-d]pyrimidin-4(3H)-one], the half-maximal inhibitory concentration (IC50) (in assay [1]; at CK2) was under 10 µM throughout.
Take `O=C1CC(c2nc3c(oc4ccc(Br)cc43)c(=O)[nH]2)CN1C1CCNCC1` (centres unmarked) [Compound 304, 8-Bromo-2-(5-oxo-1-piperidin-4-ylpyrrolidin-3-yl)[1]benzofuro[3,2-d]pyrimidin-4(3H)-one]: the IC50 (in assay [1]; at CK2) was under 10 µM throughout.
Regarding `O=c1[nH]c(CN2CCCC(CO)C2)nc2c1oc1ccc(Br)cc12` (centres unmarked) [Compound 306, 8-bromo-2-{[3-(hydroxymethyl)piperidin-1-yl]methyl}[1]benzofuro[3,2-d]pyrimidin-4(3H)-one], the IC50 (in assay [1]; on CK2) was under 10 µM throughout.
As for `O=c1[nH]c(NCCO)nc2c1oc1ccc(Br)cc12` [Compound 309, 8-Bromo-2-[(2-hydroxyethyl)amino][1]benzofuro[3,2-d]pyrimidin-4(3H)-one], the IC50 (in assay [1]; on CK2) was under 10 µM each time.
As for `O=C(O)Cc1nc2c(oc3ccc(Br)cc32)c(=O)[nH]1` [Compound 310, (8-bromo-4-oxo-3,4-dihydro[1]benzofuro[3,2-d]pyrimidin-2-yl)acetic acid], the 50% inhibitory concentration (IC50) (in assay [1]; at CK2) was under 10 µM throughout.
As to `O=C(Nc1ccc(Cl)c(-c2nc3c(oc4ccc(Br)cc43)c(=O)[nH]2)c1)c1ccncc1` [Compound 314, N-[3-(8-bromo-4-oxo-3,4-dihydro[1]benzofuro[3,2-d]pyrimidin-2-yl)-4-chlorophenyl]pyridine-4-carboxamide], the IC50 (in assay [1]; on CK2) was under 10 µM in each case.
For `O=c1[nH]c(CN2CCC(F)(F)C2)nc2c1oc1ccc(Br)cc12` [Compound 318, 8-bromo-2-[(3,3-difluoropyrrolidin-1-yl)methyl][1]benzofuro[3,2-d]pyrimidin-4(3H)-one], the concentration for half-maximal inhibition (IC50) (in assay [1]; at CK2) was under 10 µM each time.
`O=C(NCc1ccncc1)C1CCN(Cc2nc3c(oc4ccc(Br)cc43)c(=O)[nH]2)C1` (centres unmarked) [Compound 325, 1-[(8-bromo-4-oxo-3,4-dihydro[1]benzofuro[3,2-d]pyrimidin-2-yl)methyl]-N-(pyridin-4-ylmethyl)pyrrolidine-3-carboxamide]: the concentration for half-maximal inhibition (IC50) (in assay [1]; on CK2) was under 10 µM throughout.
On to `O=C(Nc1ccc(Cl)c(-c2nc3c(oc4ccc(Br)cc43)c(=O)[nH]2)c1)c1ccnc(Cl)c1` [Compound 326, N-[3-(8-bromo-4-oxo-3,4-dihydro[1]benzofuro[3,2-d]pyrimidin-2-yl)-4-chlorophenyl]-2-chloropyridine-4-carboxamide], for which the IC50 (in assay [1]; at CK2) was under 10 µM throughout.
For the molecule `O=C(Nc1ccc(Cl)c(-c2nc3c(oc4ccc(Br)cc43)c(=O)[nH]2)c1)c1cncnc1` [Compound 329, N-[3-(8-bromo-4-oxo-3,4-dihydro[1]benzofuro[3,2-d]pyrimidin-2-yl)-4-chlorophenyl]pyrimidine-5-carboxamide], the IC50 (in assay [1]; on CK2) was under 10 µM in each case.
Regarding `COC(=O)c1ccc(C(=O)Nc2ccc(-c3nc4c(oc5ccc(Br)cc54)c(=O)[nH]3)c(Cl)c2)nc1` [Compound 334, methyl 6-({[4-(8-bromo-4-oxo-3,4-dihydro[1]benzofuro[3,2-d]pyrimidin-2-yl)-3-chlorophenyl]amino}carbonyl)pyridine-3-carboxylate], the IC50 (in assay [1]; at CK2) was under 10 µM each time.
Consider `COc1cc(C(=O)Nc2ccc(-c3nc4c(oc5ccc(Br)cc54)c(=O)[nH]3)c(Cl)c2)ccn1` [Compound 335, N-[4-(8-bromo-4-oxo-3,4-dihydro[1]benzofuro[3,2-d]pyrimidin-2-yl)-3-chlorophenyl]-2-(methyloxy)pyridine-4-carboxamide], for which the half-maximal inhibitory concentration (IC50) (in assay [1]; at CK2) was under 10 µM each time.
As to `O=C(Nc1ccc(-c2nc3c(oc4ccc(Br)cc43)c(=O)[nH]2)c(Cl)c1)c1ccc(Br)cn1` [Compound 336, 5-bromo-N-[4-(8-bromo-4-oxo-3,4-dihydro[1]benzofuro[3,2-d]pyrimidin-2-yl)-3-chlorophenyl]pyridine-2-carboxamide], the IC50 (in assay [1]; at CK2) was under 10 µM each time.
For `COc1cc(C(=O)Nc2ccc(Cl)c(-c3nc4c(oc5ccc(Br)cc54)c(=O)[nH]3)c2)ccn1` [Compound 337, N-[3-(8-bromo-4-oxo-3,4-dihydro[1]benzofuro[3,2-d]pyrimidin-2-yl)-4-chlorophenyl]-2-(methyloxy)pyridine-4-carboxamide], the 50% inhibitory concentration (IC50) (in assay [1]; on CK2) was under 10 µM in each case.
Take `O=C(Nc1ccc(-c2nc3c(oc4ccc(Br)cc43)c(=O)[nH]2)c(Cl)c1)c1ccc(Cl)cn1` [Compound 339, N-[4-(8-bromo-4-oxo-3,4-dihydro[1]benzofuro[3,2-d]pyrimidin-2-yl)-3-chlorophenyl]-5-chloropyridine-2-carboxamide]: the IC50 (in assay [1]; at CK2) was under 10 µM each time.
Take `O=C(Nc1ccc(Cl)c(-c2nc3c(oc4ccc(Br)cc43)c(=O)[nH]2)c1)c1ccc(Cl)cn1` [Compound 340, N-[3-(8-bromo-4-oxo-3,4-dihydro[1]benzofuro[3,2-d]pyrimidin-2-yl)-4-chlorophenyl]-5-chloropyridine-2-carboxamide]: the 50% inhibitory concentration (IC50) (in assay [1]; on CK2) was under 10 µM each time.
Consider `O=C(Nc1ccc(-c2nc3c(oc4ccc(Br)cc43)c(=O)[nH]2)c(Cl)c1)c1ccoc1` [Compound 341, N-[4-(8-bromo-4-oxo-3,4-dihydro[1]benzofuro[3,2-d]pyrimidin-2-yl)-3-chlorophenyl]furan-3-carboxamide], for which the IC50 (in assay [1]; at CK2) was under 10 µM in each case.
Consider `O=C(Nc1ccc(Cl)c(-c2nc3c(oc4ccc(Br)cc43)c(=O)[nH]2)c1)c1ccoc1` [Compound 342, N-[3-(8-bromo-4-oxo-3,4-dihydro[1]benzofuro[3,2-d]pyrimidin-2-yl)-4-chlorophenyl]furan-3-carboxamide], for which the IC50 (in assay [1]; at CK2) was under 10 µM throughout.
